Measurements reported in PubChem BioAssay (NCI).
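Cultured in 96-well plates, cells were exposed to test compound for 48 hours across five concentrations. GI50: concentration for 50% inhibition of growth. Definition used: TGI = concentration required for complete inhibition of growth.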

Key:
Test in all cases: NCI-60 cell line screen, 48 h
786-0 renal = tested on: 786-0 renal
A498 renal = tested on: A498 renal
A549 NSCLC = tested on: A549 NSCLC
ACHN renal = tested on: ACHN renal
BT-549 breast = tested on: BT-549 breast
CAKI-1 renal = tested on: CAKI-1 renal
CCRF-CEM leukemia = tested on: CCRF-CEM leukemia
COLO 205 colon = tested on: COLO 205 colon
DU-145 prostate = tested on: DU-145 prostate
EKVX NSCLC = tested on: EKVX NSCLC
HCC-2998 colon = tested on: HCC-2998 colon
HCT-116 colon = tested on: HCT-116 colon
HCT-15 colon = tested on: HCT-15 colon
HL-60(TB) leukemia = tested on: HL-60(TB) leukemia
HOP-62 NSCLC = tested on: HOP-62 NSCLC
HOP-92 NSCLC = tested on: HOP-92 NSCLC
HS 578T breast = tested on: HS 578T breast
HT29 colon = tested on: HT29 colon
IGROV1 ovarian = tested on: IGROV1 ovarian
K-562 leukemia = tested on: K-562 leukemia
KM12 colon = tested on: KM12 colon
LOX IMVI melanoma = tested on: LOX IMVI melanoma
M14 melanoma = tested on: M14 melanoma
MALME-3M melanoma = tested on: MALME-3M melanoma
MCF7 breast = tested on: MCF7 breast
MDA-MB-231 breast = tested on: MDA-MB-231 breast
MDA-MB-435 = tested on: MDA-MB-435
MDA-N = tested on: MDA-N
MOLT-4 leukemia = tested on: MOLT-4 leukemia
NCI-H226 lung = tested on: NCI-H226 lung
NCI-H23 lung = tested on: NCI-H23 lung
NCI-H460 lung = tested on: NCI-H460 lung
NCI-H522 lung = tested on: NCI-H522 lung
NCI/ADR-RES ovarian = tested on: NCI/ADR-RES ovarian
OVCAR-3 ovarian = tested on: OVCAR-3 ovarian
OVCAR-4 ovarian = tested on: OVCAR-4 ovarian
OVCAR-5 ovarian = tested on: OVCAR-5 ovarian
OVCAR-8 ovarian = tested on: OVCAR-8 ovarian
PC-3 prostate = tested on: PC-3 prostate
RPMI-8226 leukemia = tested on: RPMI-8226 leukemia
RXF 393 renal = tested on: RXF 393 renal
SF-268 CNS = tested on: SF-268 CNS
SF-295 CNS = tested on: SF-295 CNS
SF-539 CNS = tested on: SF-539 CNS
SK-MEL-2 melanoma = tested on: SK-MEL-2 melanoma
SK-MEL-28 melanoma = tested on: SK-MEL-28 melanoma
SK-MEL-5 melanoma = tested on: SK-MEL-5 melanoma
SK-OV-3 ovarian = tested on: SK-OV-3 ovarian
SN12C renal = tested on: SN12C renal
SNB-19 CNS = tested on: SNB-19 CNS
SNB-75 CNS = tested on: SNB-75 CNS
SR leukemia = tested on: SR leukemia
SW-620 colon = tested on: SW-620 colon
T-47D breast = tested on: T-47D breast
TK-10 renal = tested on: TK-10 renal
U251 CNS = tested on: U251 CNS
UACC-257 melanoma = tested on: UACC-257 melanoma
UACC-62 melanoma = tested on: UACC-62 melanoma
UO-31 renal = tested on: UO-31 renal

In the case of NS(=O)(=O)c1ccc(/C=C/c2ccc(O)c(O)c2)cc1, the TGI (786-0 renal) was greater than 100 µM, the TGI (A498 renal) was greater than 100 µM and the GI50 (A549 NSCLC) was 22.3 µM. The TGI (A549 NSCLC) was greater than 100 µM, the GI50 (ACHN renal) was 20.4 µM and the TGI (ACHN renal) was greater than 100 µM. For the same molecule, the GI50 (BT-549 breast) was 4.13 µM, the TGI (BT-549 breast) was 27.1 µM and the GI50 (CAKI-1 renal) was 29.1 µM. For the same molecule, the TGI (CAKI-1 renal) was greater than 100 µM, the GI50 (CCRF-CEM leukemia) was 4.79 µM and the TGI (CCRF-CEM leukemia) was greater than 100 µM. It also gave a TGI (COLO 205 colon) of 53.8 µM, a TGI (DU-145 prostate) greater than 100 µM and a TGI (EKVX NSCLC) of 64 µM. For the same molecule, the TGI (HCC-2998 colon) was 41.7 µM, the TGI (HCT-116 colon) was greater than 100 µM and the GI50 (HCT-15 colon) was 13.9 µM. For the same molecule, the TGI (HCT-15 colon) was greater than 100 µM, the GI50 (HL-60(TB) leukemia) was 16.3 µM and the TGI (HL-60(TB) leukemia) was greater than 100 µM. For the same molecule, the TGI (HOP-62 NSCLC) was greater than 100 µM, the GI50 (HOP-92 NSCLC) was 15.8 µM and the TGI (HOP-92 NSCLC) was 47.9 µM. For the same molecule, the GI50 (HS 578T breast) was 25.6 µM, the TGI (HS 578T breast) was 92.8 µM and the GI50 (HT29 colon) was 35.4 µM. It also gave a TGI (HT29 colon) greater than 100 µM, a GI50 (IGROV1 ovarian) of 4.49 µM and a TGI (IGROV1 ovarian) of 40.1 µM. It also gave a GI50 (K-562 leukemia) of 35.3 µM, a TGI (K-562 leukemia) greater than 100 µM and a GI50 (KM12 colon) of 18.2 µM. The TGI (KM12 colon) was 48.9 µM, the GI50 (LOX IMVI melanoma) was 29.9 µM and the TGI (LOX IMVI melanoma) was greater than 100 µM. For the same molecule, the TGI (M14 melanoma) was greater than 100 µM, the TGI (MALME-3M melanoma) was greater than 100 µM and the TGI (MCF7 breast) was 51.9 µM. For the same molecule, the TGI (MDA-MB-231 breast) was 64.6 µM, the GI50 (MDA-MB-435) was 16.8 µM and the TGI (MDA-MB-435) was 51.5 µM. For the same molecule, the TGI (MDA-N) was 65.7 µM, the GI50 (MOLT-4 leukemia) was 12.8 µM and the TGI (MOLT-4 leukemia) was 53.7 µM. The GI50 (NCI-H226 lung) was 14 µM, the TGI (NCI-H226 lung) was 60.2 µM and the GI50 (NCI-H23 lung) was 25.9 µM. For the same molecule, the TGI (NCI-H23 lung) was 79.3 µM, the TGI (NCI-H460 lung) was greater than 100 µM and the GI50 (NCI-H522 lung) was 2.25 µM. It also gave a TGI (NCI-H522 lung) of 4.79 µM, a TGI (NCI/ADR-RES ovarian) of 71.7 µM and a TGI (OVCAR-3 ovarian) greater than 100 µM. It also gave a GI50 (OVCAR-4 ovarian) of 11.6 µM, a TGI (OVCAR-4 ovarian) of 27.2 µM and a TGI (OVCAR-5 ovarian) greater than 100 µM. For the same molecule, the GI50 (OVCAR-8 ovarian) was 16.7 µM, the TGI (OVCAR-8 ovarian) was 56.5 µM and the TGI (PC-3 prostate) was 83.5 µM. The GI50 (RPMI-8226 leukemia) was 9.16 µM, the TGI (RPMI-8226 leukemia) was 73.3 µM and the TGI (RXF 393 renal) was greater than 100 µM. For the same molecule, the GI50 (SF-268 CNS) was 18.2 µM, the TGI (SF-268 CNS) was 47.3 µM and the TGI (SF-295 CNS) was 74.3 µM. The GI50 (SF-539 CNS) was 14.2 µM, the TGI (SF-539 CNS) was 40.2 µM and the TGI (SK-MEL-2 melanoma) was 62.8 µM. It also gave a TGI (SK-MEL-28 melanoma) of 78.6 µM, a TGI (SK-MEL-5 melanoma) of 29.6 µM and a TGI (SK-OV-3 ovarian) of 48.8 µM. The TGI (SN12C renal) was 60.9 µM, the TGI (SNB-19 CNS) was greater than 100 µM and the TGI (SNB-75 CNS) was 58.3 µM. It also gave a GI50 (SR leukemia) of 12.7 µM, a TGI (SR leukemia) of 51.3 µM and a TGI (SW-620 colon) greater than 100 µM. It also gave a TGI (T-47D breast) of 53.1 µM, a TGI (TK-10 renal) greater than 100 µM and a GI50 (U251 CNS) of 16.3 µM. The TGI (U251 CNS) was 46.9 µM, the TGI (UACC-257 melanoma) was greater than 100 µM and the GI50 (UACC-62 melanoma) was 23.3 µM. The TGI (UACC-62 melanoma) was 42.2 µM and the TGI (UO-31 renal) was 35 µM.
